Source: patent USRE47689E1, “Compounds for treating spinal muscular atrophy” (PTC Therapeutics, Inc., priority 2011, dated 2019)
Structures can show the parent of a compound that is named as a salt. Where two headings read alike, the source gives them in different places.

Experiments:
[1] = tested on: SMN2 minigene (full length SMN2 minigene mRNA containing SMN2 exon 7); experiment: SMN2 minigene mRNA splicing RT-qPCR assay in cultured cells; format: cell-based, human; conditions: for EC (1.5-fold): Homo sapiens, HEK293-H, read-out: EC1.5x for production of full length SMN2 mRNA
Outline: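 Lysates → one-step RT-qPCR, minigene-specific primers (0.4 μM final) + GAPDH multiplex, 40 cycles. FL/GAPDH vs DMSO; EC1.5x, star-binned.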

Smn protein = Smn protein assay in cultured cells (SMN HTRF); format: cell-based, human; conditions: for EC1.5x (concentration giving 1.5-fold Smn protein increase): read-out: EC1.5x for Smn protein expression
Outline: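 Smn in SMA fibroblast lysates, measured by anti-SMN HTRF after 48 h compound exposure; EC1.5x from fold change over vehicle.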

[2] = HEK293H cells stably transfected with SMN2-A minigene, 24 hours, 7-point concentration curve, 1.5-fold relative to vehicle-treated cells
[3] = SMA Type 1 patient fibroblast cells (GM03813), 48 hours, 7-point concentration curve, SMN HTRF, concentration producing 1.5 times Smn protein vs DMSO vehicle control
[4] = SMA patient fibroblast cells, 48 hours, 7-point concentration data, fold increase relative to vehicle control (SMN HTRF)

Row | Compound | EC (1.5-fold) [1, 2] [µM] | EC1.5x (concentration giving 1.5-fold Smn protein increase) (Smn protein; [3]) [nM] | maximum fold (Fold) increase of Smn protein (Smn protein; [4]) | also measured
1 | CCN1CCN(c2ccc3cc(-c4cn5cc(C)nc(C)c5n4)c(=O)oc3c2)C[C@@H]1C(C)C [Compound 810, 3-(6,8-dimethylimidazo[1,2-a]pyrazin-2-yl)-7-[(3S)-4-ethyl-3-(propan-2-yl)piperazin-1-yl]-2H-chromen-2-one] | 0.3 to 1 | 1000 to 3000 | **** (fold increase between >1.5 and ≤1.65) | 
2 | 7-(2,5-diazabicyclo[2.2.2]oct-2-yl)-3-(pyrazolo[1,5-a]pyridin-2-yl)-2H-chromen-2-one [Compound 191] |  |  | ** (fold increase between >1.2 and ≤1.35) | EC1.5x for production of full length SMN2 mRNA [1, 2]: *** (between >0.3 μM and ≤1 μM)
3 | Cc1cn2cc(-c3cc4ccc(N5CCCN(C)CC5)cc4oc3=O)cc2c(C)n1 [Compound 681, 3-(1,3-dimethylpyrrolo[1,2-a]pyrazin-7-yl)-7-(4-methyl-1,4-diazepan-1-yl)-2H-chromen-2-one] | < 0.1 | < 300 | **** (fold increase between >1.5 and ≤1.65) | 
4 | O=c1oc2cc(N3CCNCC3)ccc2cc1-c1cn2cc(F)ccc2n1 [Compound 103, 3-(6-fluoroimidazo[1,2-a]pyridin-2-yl)-7-(piperazin-1-yl)-2H-chromen-2-one] | 0.3 to 1 |  | ** (fold increase between >1.2 and ≤1.35) | 
5 | Cc1cn2cc(-c3cc4ccc(C5=CCN(C)CC5)cc4oc3=O)nc2c(C)n1 [Compound 800, 3-(6,8-dimethylimidazo[1,2-a]pyrazin-2-yl)-7-(1-methyl-1,2,3,6-tetrahydropyridin-4-yl)-2H-chromen-2-one] |  |  |  | EC (1.5-fold) ([1]; 24 h): < 0.1 µM; maximum fold (Fold) increase of Smn protein (Smn protein): ***** (key: *: maximum fold increase of ≤1.2; **: fold increase between >1.2 and ≤1.35; ***: fold increase between >1.35 and ≤1.5; ****: fold increase between >1.5 and ≤1.65; *****: fold increase >1.65); EC1.5x (concentration giving 1.5-fold Smn protein increase) (Smn protein): < 300 nM
6 | CCN1CCCN(c2ccc3cc(-c4cn5cc(C)ncc5n4)c(=O)oc3c2)CC1 [Compound 618, 7-(4-ethyl-1,4-diazepan-1-yl)-3-(6-methylimidazo[1,2-a]pyrazin-2-yl)-2H-chromen-2-one] | < 0.1 | < 300 | **** (fold increase between >1.5 and ≤1.65) | 
7 | O=C(O)C(F)(F)F.O=c1oc2cc(N3CCNCC3)ccc2cc1-c1nc2c(C(F)(F)F)cccc2o1 [Compound 1, 7-(piperazin-1-yl)-3[4-(trifluoromethyl)-1,3-benzoxazol-2-yl]-2H-chromen-2-one trifluoroacetate] | 0.3 to 1 |  | * (maximum fold increase of ≤1.2) | 
8 | Cc1cn2cc(-c3cc4ccc(N5CCN[C@H](C)C5)cc4oc3=O)ccc2n1 [Compound 652, 3-(2-methylimidazo[1,2-a]pyridin-6-yl)-7-[(3R)-3-methylpiperazin-1-yl]-2H-chromen-2-one] | < 0.1 | < 300 | **** (fold increase between >1.5 and ≤1.65) | 
9 | Cc1csc(-c2cc3ccc(N4CCNCC4)cc3oc2=O)n1 [Compound 37, 3-(4-methyl-1,3-thiazol-2-yl)-7-(piperazin-1-yl)-2H-chromen-2-one] |  |  | ** (fold increase between >1.2 and ≤1.35) | EC (1.5-fold) ([1]; 24 h): 1 to 3 µM
10 | CN1CCN(c2cc(F)c3cc(-c4cn5cccnc5n4)c(=O)oc3c2)CC1 [Compound 351, 5-fluoro-3-(imidazo[1,2-a]pyrimidin-2-yl)-7-(4-methylpiperazin-1-yl)-2H-chromen-2-one] | 0.3 to 1 |  | * (maximum fold increase of ≤1.2) | 
11 | O=c1oc2cc(N3CCNCC3)ccc2cc1-c1cc(C(F)(F)F)ccn1 [Compound 76, 7-(piperazin-1-yl)-3-[4-(trifluoromethyl)pyridin-2-yl]-2H-chromen-2-one] | 1 to 3 |  | * (maximum fold increase of ≤1.2) | 
12 | O=c1oc2cc(N3CCNCC3)ccc2cc1-c1cn2ccc(C(F)(F)F)cc2n1 [Compound 114, 7-(piperazin-1-yl)-3-[7-(trifluoromethyl)imidazo[1,2-a]pyridin-2-yl]-2H-chromen-2-one] | < 0.1 |  | ** (fold increase between >1.2 and ≤1.35) | 
13 | Cc1cn2cc(-c3cc4ccc(N5CCN(C)CC5)cc4oc3=O)nc2cn1 [Compound 568, 3-(6-methylimidazo[1,2-a]pyrazin-2-yl)-7-(4-methylpiperazin-1-yl)-2H-chromen-2-one] | < 0.1 | < 300 | ***** (fold increase >1.65) | 
14 | CCN1CCC(c2ccc3cc(-c4cc5c(C)nc(C)cn5n4)c(=O)oc3c2)CC1 [Cpd 853, 3-(4,6-dimethylpyrazolo[1,5-a]pyrazin-2-yl)-7-(1-ethylpiperidin-4-yl)-2H-chromen-2-one] | 1 to 3 |  | * (maximum fold increase of ≤1.2) | 
15 | Cc1cn2cc(-c3cc4ccc(N5CCNCC5)cc4oc3=O)cc(F)c2n1 [Compound 986, 3-(8-fluoro-2-methylimidazo[1,2-a]pyridin-6-yl)-7-(piperazin-1-yl)-2H-chromen-2-one] | < 0.1 | < 300 | ***** (fold increase >1.65) | 
16 | COc1ccc(-c2cc3ccc(N4CCNC[C@@H]4C)cc3oc2=O)cc1OC [Compound 472, 3-(3,4-dimethoxyphenyl)-7-[(2S)-2-methylpiperazin-1-yl]-2H-chromen-2-one] | 1 to 3 |  | * (maximum fold increase of ≤1.2) | 
17 | Cc1cccc2oc(-c3cc4ccc(N5CCNCC5)cc4oc3=O)nc12.Cl [Compound 22, 3-(4-methyl-1,3-benzoxazol-2-yl)-7-(piperazin-1-yl)-2H-chromen-2-one hydrochloride] | 3 to 30 |  | * (maximum fold increase of ≤1.2) | 
18 | O=c1oc2cc(N3CCNCC3)ccc2cc1-c1nc2ccccc2s1 [Cpd 4, 3-(1,3-benzothiazol-2-yl)-7-(piperazin-1-yl)-2H-chromen-2-one hydrochloride] | 1 to 3 |  | * (maximum fold increase of ≤1.2) | 
19 | O=c1oc2cc(N3CC4CC3CN4)ccc2cc1-c1nc2ccccc2o1 (stereo not shown) [Compound 85, 3-(1,3-benzoxazol-2-yl)-7-(2,5-diazabicyclo[2.2.1]hept-2-yl)-2H-chromen-2-one] | 3 to 30 |  | * (maximum fold increase of ≤1.2) | 
20 | Cc1cn2cc(-c3cc4ccc(N5CCC(C#N)CC5)cc4oc3=O)nc2c(C)n1 [Compound 974, 1-[3-(6,8-dimethylimidazo[1,2-a]pyrazin-2-yl)-2-oxo-2H-chromen-7-yl]piperidine-4-carbonitrile] | 3 to 30 |  | ** (fold increase between >1.2 and ≤1.35) | 
21 | Cc1cn2cc(-c3cc4c(F)cc(N5CCN[C@@H](C)C5)cc4oc3=O)nc2cn1 [Compound 593, 5-fluoro-3-(6-methylimidazo[1,2-a]pyrazin-2-yl)-7-[(3S)-3-methylpiperazin-1-yl]-2H-chromen-2-one] | < 0.1 | < 300 | ***** (fold increase >1.65) | 
22 | Cc1cn2cc(-c3cc4ccc(O[C@@H]5CCNC5)cc4oc3=O)nc2c(C)n1 [Compound 601, 3-(6,8-dimethylimidazo[1,2-a]pyrazin-2-yl)-7-[(3R)-pyrrolidin-3-yloxy]-2H-chromen-2-one] | < 0.1 | < 300 | ***** (fold increase >1.65) | 
23 | O=c1oc2cc(N3CCNCC3)ccc2cc1-c1nc2c(Cl)cccc2s1 [Cpd 5, 3-(4-chloro-1,3-benzothiazol-2-yl)-7-(piperazin-1-yl)-2H-chromen-2-one hydrochloride] | 0.3 to 1 |  | * (maximum fold increase of ≤1.2) | 
24 | COc1ccc(-c2cc3c(F)cc(N4CCN(C)CC4)cc3oc2=O)cc1OC [Compound 405, 3-(3,4-dimethoxyphenyl)-5-fluoro-7-(4-methylpiperazin-1-yl)-2H-chromen-2-one] | 3 to 30 |  | ** (fold increase between >1.2 and ≤1.35) | 
25 | O=c1oc2cc(N3CCNCC3)ccc2cc1-c1ccc2nccn2c1 [Compound 980, 3-(imidazo[1,2-a]pyridin-6-yl)-7-(piperazin-1-yl)-2H-chromen-2-one] | 0.3 to 1 |  | *** (fold increase between >1.35 and ≤1.5) | 
26 | CCN1CCN(c2ccc3cc(-c4cn5cc(C)nc(C)c5n4)c(=O)oc3c2)C[C@H]1C [Compound 679, 3-(6,8-dimethylimidazo[1,2-a]pyrazin-2-yl)-7-[(3R)-4-ethyl-3-methylpiperazin-1-yl]-2H-chromen-2-one] | < 0.1 | < 300 | ***** (fold increase >1.65) | 
27 | CCCN1CCN(c2ccc3cc(-c4cc5ccccn5n4)c(=O)oc3c2)CC1 [Compound 195, 7-(4-propylpiperazin-1-yl)-3-(pyrazolo[1,5-a]pyridin-2-yl)-2H-chromen-2-one] | 1 to 3 |  | * (maximum fold increase of ≤1.2) | 
